Assay results reported in patent publication US20170152258A9, “Substituted Pyridopyrazines as Syk Inhibitors” (HUTCHISON MEDIPHARMA LIMITED, priority 2012, published 2017).
“And” between values parts separate entries of the source, which are not always exact repeats. Equal entries are not always repeated.

Columns and labels:
RBL-2H3 cells = assay: IgE-induced Beta-hexosaminidase secretion in RBL-2H3 cells; format: cell-based; details: Rattus norvegicus, RBL-2H3, IgE-induced Beta-hexosaminidase secretion, DNP-BSA stimulation
Summary of the method: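 RBL-2H3 cells sensitized overnight with 0.5 ug/ml SPE-7 IgE, washed, preincubated with compound 20 min at 37° C, then stimulated with DNP-BSA (150 ng/mL stock) for 45 min. Released β-hexosaminidase measured on supernatant with 1 mM 4-nitrophenyl N-acetyl-β-D-glucosaminide, pH 4.5, 1.5 hr at 37° C; absorbance 405 nm after carbonate quench.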

VEGFR-2 (KDR) = target: T1, VEGFR-2 (KDR) (Homo sapiens, UniProt P35968); assay: Transcreener Kinase Assay of VEGFR-2 (KDR); format: biochemical; details: recombinant human KDR, Transcreener FP
T1 construct: purchased Invitrogen PV3660
T1 sequence (P35968 20-1356): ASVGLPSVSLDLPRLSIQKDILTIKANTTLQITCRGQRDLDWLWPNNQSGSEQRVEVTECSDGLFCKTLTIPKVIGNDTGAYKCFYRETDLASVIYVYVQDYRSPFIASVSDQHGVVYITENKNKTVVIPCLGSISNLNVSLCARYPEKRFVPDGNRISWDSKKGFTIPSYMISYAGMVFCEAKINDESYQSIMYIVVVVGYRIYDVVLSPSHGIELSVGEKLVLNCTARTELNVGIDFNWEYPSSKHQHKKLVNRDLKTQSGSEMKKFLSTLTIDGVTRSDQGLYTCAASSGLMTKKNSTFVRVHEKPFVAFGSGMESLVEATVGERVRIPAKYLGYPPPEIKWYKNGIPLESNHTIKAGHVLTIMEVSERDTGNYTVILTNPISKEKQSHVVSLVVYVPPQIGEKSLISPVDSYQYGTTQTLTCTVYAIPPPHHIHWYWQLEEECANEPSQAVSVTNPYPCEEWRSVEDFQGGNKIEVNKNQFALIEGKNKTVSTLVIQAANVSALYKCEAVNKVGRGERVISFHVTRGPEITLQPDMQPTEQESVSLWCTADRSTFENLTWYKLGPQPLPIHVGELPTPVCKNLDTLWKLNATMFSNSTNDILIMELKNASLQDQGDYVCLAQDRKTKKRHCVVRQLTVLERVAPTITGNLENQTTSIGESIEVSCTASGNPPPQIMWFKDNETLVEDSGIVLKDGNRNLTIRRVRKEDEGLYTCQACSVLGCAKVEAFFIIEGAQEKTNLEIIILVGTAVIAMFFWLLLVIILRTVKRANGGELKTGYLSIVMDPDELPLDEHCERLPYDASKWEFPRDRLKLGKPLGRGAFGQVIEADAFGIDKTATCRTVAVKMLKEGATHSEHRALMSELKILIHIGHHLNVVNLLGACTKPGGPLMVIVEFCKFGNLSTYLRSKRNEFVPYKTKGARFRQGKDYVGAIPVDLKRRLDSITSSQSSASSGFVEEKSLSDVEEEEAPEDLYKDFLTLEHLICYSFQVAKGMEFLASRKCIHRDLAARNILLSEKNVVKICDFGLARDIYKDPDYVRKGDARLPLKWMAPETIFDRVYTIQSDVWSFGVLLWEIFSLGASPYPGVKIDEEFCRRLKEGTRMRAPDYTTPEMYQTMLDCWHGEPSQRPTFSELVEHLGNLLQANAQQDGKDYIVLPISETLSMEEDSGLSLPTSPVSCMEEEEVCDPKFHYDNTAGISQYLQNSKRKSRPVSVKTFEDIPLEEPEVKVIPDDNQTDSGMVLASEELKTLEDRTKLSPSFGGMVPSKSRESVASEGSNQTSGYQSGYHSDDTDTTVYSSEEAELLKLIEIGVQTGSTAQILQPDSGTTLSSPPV
Description: Transcreener Kinase Assay of VEGFR-2 (KDR)
• 1) Transcreenen™ KINASE Assy kit: Bellbrook Labs., 3003-10K; • 2) Recombinant human KDR: Invitrogen, PV3660; • 3) Poly E4Y (substrate): Sigma, P0275; 5 mg/mL, dissolved in MilliQ water; • 4) Assay buffer: 67 mM HEPES, 0.013% Triton X-100, 27 mM MgCl2, 0.67 mM MnCl2, 1.25 mM DTT, PH 7.4; • 5) 10 mM ATP: Invitrogen, PV3227; • 6) 500 mM EDTA: Invitrogen, 15575-038; • 7) 96 well black Greiner plate: Greiner, 675076.
• 1) Dilute the compound to 5 folds of final concentrations, keeping the DMSO concentration at 5%. The final concentrations are 1, 0.33, 0.11, 0.037, 0.012, 0.004, 0.0014, 0.0005 μM; and the final concentration of DMSO is 1%. • 2) Prepare Enzyme/Substrate stock, Recombinant human KDR and Poly E4Y are both diluted in assay buffer. The final concentration is KDR (0.3 ng/μL), Poly E4Y (62.5 ng/μL). […]
Wherein: • 1) Compound well [ADP] represents the ADP concentration of compound well. • 2) Positive control well [ADP] represents the ADP concentration of 5% DMSO well • 3) Conversion of mP value to ADP concentration based on the formula which determined by standard curve. […] (www.bellbrooklabs.com). • IC50: calculated using XL-Fit 2.0 software.

Syk kinase = Syk kinase (Homo sapiens, UniProt P43405); assay: SYK Enzymatic Assay (Z-LYTE Tyr 2 peptide); format: biochemical; details: 8 concentrations 1 μM down to 0.0003 μM
Summary of the method: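 Z-LYTE format using Tyr 2 peptide. After the 1 h room-temperature kinase reaction, development reagent was added for 1 h, then stop reagent. Fluorescence was read at 445 and 520 nm. Compounds were tested at 8 concentrations, 1 μM down to 0.0003 μM (1:3 dilutions).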

IC50 (RBL-2H3 cells) [nM]	IC50 (VEGFR-2 (KDR)) [nM]	IC50 (Syk kinase)	SMILES
37	748	32 nM and 28 nM	CC(C)(O)c1ccc(-c2cc3nccnc3c(OC[C@@H]3CN(S(C)(=O)=O)CCO3)n2)cc1 [Compound 219]
52	1130	30 nM	CC(=O)N1CCO[C@H](COc2nc(-c3ccc4c(c3)CCOC4(C)C)cc3nccnc23)C1 [Compound 300]
